From US20250122202A1, “EGFR INHIBITOR, PREPARATION METHOD THEREFOR AND USE THEREOF” (SHANDONG NEW TIME PHARMACEUTICAL CO., LTD., priority 2021, published 2025)
Read-outs that look alike come from different tables or passages of the source.

How the values were obtained:
[1] = biological target: EGFR (D770-N771 ins NPG T790M) kinase (Homo sapiens (Human), UniProt P00533, INS770NPG/T790M); test: In-vitro enzyme experiment 1 (HTRF kinase assay), EGFR D770-N771 ins NPG T790M; assay type: biochemical
Procedure: The specific experiment was as follows: • 1. Preparation of 1× concentration kinase buffer • 1 volume of 5 times concentration of an enzyme buffer diluted with 4 volumes of distilled water; 5 mM magnesium chloride; 1 mM DTT; and 1 mM MnCl2. • 2. Test method of activity of compound • a) a compound diluent was transferred to each well of an assay plate (784075, Greiner) using Echo 550; • b) the assay plate was sealed and centrifuged at 1,000 g for 1 min; • c) 2×EGFR (D770-N771 ins NPG T790M) was prepared in a 1× kinase buffer; • d) 5 μl of the 2×EGFR (D770-N771 ins NPG T790M) was added to a 384-well assay plate (784075, Greiner); • e) the assay plate was centrifuged at 1,000 g for 30 s and incubated at room temperature for 10 min; • f) 2× TK-substrate-biotin (2 μM) and ATP were added to the 1× kinase buffer and mixed; • g) the reaction was started after adding 5 μl of the TK-substrate-biotin (2 μM) and ATP mixture; • h) the assay plate was centrifuged at 1,000 g for 30 s; and the assay plate was sealed and incubated at room temperature for 40 min; • i) 4× Sa-XL 665 was prepared in an HTRF detection buffer; • j) 5 μl of the Sa-XL 665 and 5 μl of a TK-antibody-cryptate were added to each well of the assay plate; • k) the assay plate was centrifuged at 1,000 g for 30 s and incubated at room temperature for 1 h; and • l) fluorescence signals at 615 nm (cryptate) and 665 nm (XL665) were read on an Envision 2104 reader. • 3. Data analysis • 3.1 Calculation of ratio (665/615 nm) of each well • 3.2 Calculation of inhibition rate
[formula] • 3.3 Calculation of IC50 value of compound and drawing dose-effect curve of compound • IC50 values were calculated using GraphPad 6.0 by applying a non-linear regression curve (dose-effect relationship-variable slope) of the logarithm of the compound concentration versus the inhibition rate.
Y=lowest value+(highest value−lowest value)/(1+10^((Log IC50−X)×slope)) • X: logarithm of inhibitor concentration; and Y: inhibition rate. • 3.4 Double test report • 3.4.1 After one tester completed a report, another tester again checked the report to ensure that data analysis was correct. • 3.4.2 The data was exported from the software and manually analyzed. • 3.4.2.1 The rate was converted into the inhibition rate. All the IC50 values were first calculated with the inhibition rate using Prism GraphPad 6.0. • 3.4.2.2 Then the IC50 value was recalculated using the ratio to check the accuracy of the analysis. • 3.4.3 The number of all the compounds was ensured to be correct.

[2] = system: KC-1362 BaF3-EGFR D770-N771 ins NPG cells; test: Anti-proliferative activity on KC-1362 BaF3-EGFR D770-N771 ins NPG cells; assay type: cell-based; settings: Ba/F3 EGFR
PC-9 EGFR-Del19 = test: Cell proliferation inhibition experiment (CCK-8), PC-9; assay type: cell-based; settings: Homo sapiens, 72 h
Text: (§1) Inhibition rate %=[(A0−AS)/(A0−AC)]×100%.

H1975 EGFR-L858R/T790M = test: Cell proliferation inhibition experiment (CCK-8), H1975; assay type: cell-based; settings: Homo sapiens, NCI-H1975, 72 h
Text: as §1

[3] = system: KC-1474 cell subcutaneous transplantation tumor; test: In-vivo drug efficacy study, KC-1474 cell subcutaneous transplantation tumor in NPG mice; settings: for tumor volume inhibition rate (TGITV) / tumor weight inhibition rate (TGITW): 39 days, end of experiment
Procedure: Female SPF NPG mice weighed 19-22 g were used. The experimental animals were provided by Beijing Vitalstar Biotechnology Co., Ltd. with the experimental animal production license number SCXK (Jing) 2019-0002 and the experimental animal quality certification number of No.110341211100087928.
KC-1474 cells used in the experiment were cultured in a 5% CO2 37° C. incubator with an RPMI1640 medium supplemented with 10% FBS and […] of puromycin. Before the cells were continuously cultured for ten passages, the KC-1474 cells were adjusted to a concentration of 1×10^8/mL, and mixed with Matrigel at a volume ratio of 1:1, and the mixture was inoculated subcutaneously into the right lateral thorax of the NPG mice at 0.1 mL/mouse with 5×10^6 cells per mouse.
When the mean tumor volume of the mice reached about 100-130 mm^3, according to the tumor volume and weight, all the mice were randomly divided into […] group respectively: a model group (V), an example 60 compound oral administration group (po), an example 60 compound intravenous injection low-dose group (L), and an example 60 compound intravenous injection medium-dose group (M). The mice in all the groups were administrated once daily. The administration started on the day of the grouping and continued for 39 days. The mice in the model group were intravenously injected with the same volume of a solvent. The solvent was prepared by adding 2 g of polyethylene glycol-15 hydroxystearate (HS15) into 4 mL of dimethyl sulfoxide (DMSO), then adding 40 mL of purified water, and filtering an obtained mixture by using a 0.22-μm sterilizing filter. At the end of the experiment or the humane endpoint, the animals were euthanized using sodium pentobarbital for anesthesia.
Tumor volume was measured once during the grouping, once per week after the grouping using a vernier caliper, and before the euthanasia. A method for measuring the tumor volume was measuring the long diameter and the short diameter of a tumor using the vernier caliper.
The tumor volume was calculated by the formula: tumor volume=0.5×long diameter×short diameter^2.
(Ti: mean tumor volume of mice in the treatment groups on day i of the administration and T0: mean tumor volume of the mice in the treatment group on day 0 of the administration; and Vi: mean tumor volume of the mice in the model group on day i of the administration and V0: mean tumor volume of the mice in the model group on day 0 of the administration).
At the end of the experiment, the tumor tissue was stripped after the animals were euthanized, the tumor weight was weighed, and the tumor weight inhibition rate was calculated according to the following formula:
TGITW(%)=(Wmodel group−Wtreatment group)/Wmodel group×100%, wherein the W means tumor weight.
Original data was analyzed and the results were expressed as mean±standard deviation (mean±SD). At the same time, the tumor volume and the tumor weight were subjected to statistical analysis. AP<0.05 was considered to be a significant difference.

A549 EGFR-WT = test: Cell proliferation inhibition experiment (CCK-8), A549; settings: Homo sapiens, A549, 72 h, read-out: cell proliferation inhibition IC50 (μM) A549, 72 h, CCK-8

Sequence of EGFR (D770-N771 ins NPG T790M) kinase (P00533 other isoform, or with tags, fused parts or gaps T790M/del 1-668/ins NPG behind 770 limits assumed): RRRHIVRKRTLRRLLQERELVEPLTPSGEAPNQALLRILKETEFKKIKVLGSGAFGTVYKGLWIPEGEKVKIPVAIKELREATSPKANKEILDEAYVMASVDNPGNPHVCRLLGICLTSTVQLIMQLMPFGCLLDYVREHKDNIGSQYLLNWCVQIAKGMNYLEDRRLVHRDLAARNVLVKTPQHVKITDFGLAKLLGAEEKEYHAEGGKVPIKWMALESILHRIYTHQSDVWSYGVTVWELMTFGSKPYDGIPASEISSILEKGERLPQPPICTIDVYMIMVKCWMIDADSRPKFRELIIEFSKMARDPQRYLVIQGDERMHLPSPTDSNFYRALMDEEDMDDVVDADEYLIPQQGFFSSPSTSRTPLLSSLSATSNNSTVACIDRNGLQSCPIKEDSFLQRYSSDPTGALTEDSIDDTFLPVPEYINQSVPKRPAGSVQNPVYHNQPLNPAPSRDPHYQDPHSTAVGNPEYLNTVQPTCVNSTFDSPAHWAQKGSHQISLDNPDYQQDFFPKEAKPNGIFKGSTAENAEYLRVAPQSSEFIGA

CN1CCN(c2ccc(Nc3nc(N[C@H]4CC[C@@H](CO)CC4)c4c(C(=O)c5ccc(F)cc5)c[nH]c4n3)cc2)CC1 [Example 60]
IC50 [1]: 8.8 nM | IC50 [2]: 70 nM | IC50 (PC-9 EGFR-Del19): < 0.1 µM | IC50 (H1975 EGFR-L858R/T790M): 0.1 to 1 µM | tumor volume inhibition rate (TGITV) ([3]; L group, 3 mg/kg qd iv): 31% | tumor weight inhibition rate (TGITW) ([3]; L group, 3 mg/kg qd iv): 22% | tumor volume inhibition rate (TGITV) ([3]; M group, 10 mg/kg qd iv): 57% | tumor weight inhibition rate (TGITW) ([3]; M group, 10 mg/kg qd iv): 61% | animal condition during the administration and observation ([3]; all groups, qd for 39 days): no diarrhea, vomiting, or rash | tumor volume inhibition rate (TGITV) ([3]; po group, 20 mg/kg qd po): 28% | tumor weight inhibition rate (TGITW) ([3]; po group, 20 mg/kg qd po): 21% | IC50 (A549 EGFR-WT): 0.1 to 1 µM | IC50 (A549 EGFR-WT; Table 5 numeric): 0.23 µM
